Results: the supplement of paper PMC8967900

How the values were obtained:
Assay in all cases: selective drug sensitivity score (sDSS, relative to normal bone marrow) (sDSS (score)); higher = more potent and effective on the cell line relative to normal bone marrow cells
Conditions in all cases: 72 h
[1] = tested on: NALL-1
[2] = tested on: LC4-1
[3] = tested on: SUP-B15
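Also: ALL cell lines in 384-well plates, five doses spanning 10,000-fold, each plate scaled between vehicle and 100 µmol/L benzalkonium chloride controls, sDSS an adapted area-under-curve metric.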

| Compound | selective drug sensitivity score [1] | selective drug sensitivity score [2] | selective drug sensitivity score [3] |
| --- | --- | --- | --- |
| Cc1nc(C(=O)NCC(=O)O)c(O)c2ccc(Oc3ccccc3)cc12 [Roxadustat] (top concentration 10000 nM) | -1.12 | -1.12 | -1.12 |
| CC(C)(O)CC(=O)NCCn1ccc2ncnc(Nc3ccc(Oc4cccc(C(F)(F)F)c4)c(Cl)c3)c21 [TAK-285] (top concentration 2500 nM) | 0.1 | 0 | 0 |
| CC(C)C(=O)Nc1ccc([N+](=O)[O-])c(C(F)(F)F)c1 [Flutamide] (top concentration 10000 nM) | 8.04 | -0.46 | -0.56 |
| CNC(=O)c1ccc2cc([C@@]3(O)CCn4cncc43)ccc2c1 [Orteronel] (top concentration 10000 nM) | 0 | 4.9 | 2.1 |
| NC(=S)N/N=C/c1ncccc1N [Triapine] (top concentration 10000 nM) | 3.48 | 1.78 | 2.48 |
| C[C@@H](Oc1cc(-c2cnn(C3CCNCC3)c2)cnc1N)c1c(Cl)ccc(F)c1Cl [Crizotinib] (top concentration 1000 nM) | -0.54 | -0.54 | 3.86 |
| C[C@]12CC[C@@H]3c4ccc(O)cc4C[C@@H](CCCCCCCCC[S+]([O-])CCCC(F)(F)C(F)(F)F)[C@H]3[C@@H]1CC[C@@H]2O (stereo partly specified) [Fulvestrant] (top concentration 1000 nM) | 1.6 | 0 | 0 |
| CN1CCC(COc2cnc(-c3cccc(Cn4nc(-c5cccc(C#N)c5)ccc4=O)c3)nc2)CC1 [Tepotinib] (top concentration 1000 nM) | -0.08 | 4.62 | -0.08 |
| Nc1ncnc2c1c(COc1cccc(Cl)c1)nn2C1CCOCC1 (top concentration 10000 nM) | -0.64 | 0.26 | 0.16 |
| C[C@@H]1C[C@H]2[C@@H]3CCC4=CC(=O)C=C[C@]4(C)[C@@]3(F)[C@@H](O)C[C@]2(C)[C@@]1(O)C(=O)CO [Dexamethasone] (top concentration 10000 nM) | 34.1 | 12.5 | 43 |
| N#Cc1ccnc(N2C(=O)CC[C@H]2C(=O)N(c2cncc(F)c2)[C@H](C(=O)NC2CC(F)(F)C2)c2ccccc2Cl)c1 [Ivosidenib] (top concentration 10000 nM) | 0 | 0 | 0 |
| C#Cc1cccc(Nc2ncnc3cc4c(cc23)OCCOCCOCCO4)c1 [Icotinib] (top concentration 10000 nM) | 6.5 | 3.2 | 1.2 |
| Cc1cnc(NC(=O)Nc2cc(Br)c(C)cc2OC[C@@H]2CNCCO2)cn1 [Rabusertib] (top concentration 1000 nM) | -0.74 | 0.16 | -0.74 |
| CCCN(CCC)C(=O)C1=Cc2ccc(-c3ccc(C(=O)N4CCCC4)cc3)cc2N=C(N)C1 [Motolimod] (top concentration 10000 nM) | -4.48 | -3.58 | -3.58 |
| CCCOc1ccn2c(C(C)=O)cc(-c3ccccc3S(C)(=O)=O)c2c1 [GSK2801] (top concentration 10000 nM) | -0.36 | 0.24 | -0.36 |
| Cc1cc(C)c(CNC(=O)c2cc(-c3ccc(CN4CCOCC4)cc3)cc3c2cnn3C2CCCC2)c(=O)[nH]1 [EPZ-5687] (top concentration 10000 nM) | 5.34 | -0.36 | -0.36 |
| C/C(=C\c1csc(C)n1)[C@@H]1C[C@@H]2O[C@]2(C)CCC[C@H](C)[C@H](O)[C@@H](C)C(=O)C(C)(C)[C@@H](O)CC(=O)N1 [Ixabepilone] (top concentration 1000 nM) | 1.68 | 5.08 | 5.08 |
